Tests used:
MMP-13 = MMP-13 (Homo sapiens, UniProt P45452); assay: MMP-12 test adapted to MMP-13; format: biochemical
Description: (§1) The inhibitory activity of the compounds of formula (I) with regard to metalloproteinase-12 is evaluated by testing the ability of the compounds of the invention to inhibit the proteolysis of a peptide substrate by MMP-12.
(§2) The inhibitory activity of a compound of formula (I) is expressed as IC50 value, which represents the concentration of inhibitor at which a degree of inhibition of the metalloproteinase of 50% is observed.
(§3) The reaction begins with the sequential addition of 41 μl of substrate FP-1 (final concentration of 10 μM) to a buffer solution of 50 mM of Tris-HCl and 10 mM of CaCl2, which comprises 5 mM of hydroxamic acid and 5 μl of the enzyme diluted in a 0.005% Brij-35 buffer solution. The microplates are incubated for 20 minutes at ambient temperature. The compounds of the invention are tested at concentrations varying from 0.3 to 30 μM.
(§4) The measurement of the amount of proteolysis of the peptide substrate is monitored by a measurement of absorbance at 405 nm using a microplate spectrophotometer, at ambient temperature. The IC50 values are calculated from curves in which the percentage of the catalytic activity relative to the control is represented on the […] and the concentration of inhibitor is represented on the Y axis.
The test described above for the inhibition of MMP-12 is adapted and used to determine the ability of the compounds of formula (I) to inhibit the metalloproteinases MMP-1, MMP-2, MMP-3, MMP-7, MMP-9, MMP-13 and MMP-14. […] More specifically, the compounds of the present invention generally show a selectivity with a factor of greater than 50 with respect to the metalloproteinases mentioned above, except towards MMP-13. Thus, the compounds of the present invention also show an inhibitory activity with regard to MMP-13, making it possible to also use the pharmaceutical compositions comprising one or more compounds of the invention in the treatment of pathologies related to activity of MMP-13. Mention may be made, among these pathologies, by way of indication and without implied limitation, of cancer, osetoporosis, osteoarthritis, arthritis, rheumatoid arthritis, atherosclerosis, multiple sclerosis, cardiac insufficiency, asthma and chronic obstructive pulmonary disease.

MMP-12 = MMP-12 (Homo sapiens, UniProt P39900); assay: In vitro inhibition of proteolysis of fluorogenic peptide substrate FP-1 by MMP-12; format: biochemical; conditions: substrate FP-1 10 μM, 20 minutes at ambient temperature, compounds tested 0.3 to 30 μM
Description: as §1, §2, §3, §4

[1] = Solubility remark on the isolated sodium salt; format: physicochemical; conditions: sodium salt form, remark in the synthesis
Description: 1.2 ml of water and 30.5 mg of lithium hydroxide (5 equivalents) are added to a solution of 118 mg of the compound obtained in the preceding Stage 1 in 1.5 ml of methanol. The reaction medium is stirred at 50° C. for 2 hours and then concentrated under reduced pressure. The residue obtained is taken up in ether and the insoluble material is removed. The ethereal solution, after several treatments with acid and base, results in the formation of a precipitate, which is isolated.

MMP-12, sequence (P39900 106-470): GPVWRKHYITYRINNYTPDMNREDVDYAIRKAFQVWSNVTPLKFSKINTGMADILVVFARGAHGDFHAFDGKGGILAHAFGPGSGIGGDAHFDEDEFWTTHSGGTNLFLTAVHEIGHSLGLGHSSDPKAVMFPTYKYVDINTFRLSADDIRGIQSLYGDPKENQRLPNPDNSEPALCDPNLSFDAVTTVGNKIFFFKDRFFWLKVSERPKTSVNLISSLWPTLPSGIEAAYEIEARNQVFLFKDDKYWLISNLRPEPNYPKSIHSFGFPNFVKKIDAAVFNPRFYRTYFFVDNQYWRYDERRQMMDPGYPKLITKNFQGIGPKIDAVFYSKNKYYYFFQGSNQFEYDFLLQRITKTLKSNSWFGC

Question: For `O=C(O)Cc1ccc(CNC(=O)c2cc(-c3ccc(-c4cncnc4)cc3)cs2)cc1` [Example 111, 2-{4-[({4-[4-(Pyrimidin-5-yl)phenyl]thien-2-yl}carboxamido)-methyl]phenyl}acetic acid], which IC50 (MMP-13) is on record?
Answer: 2.2 µM

Question: What about the IC50 (MMP-12) of the same compound?
Answer: 0.7 µM

Question: For `O=C(O)Cc1ccc(CNC(=O)c2cc(-c3ccc(-c4ccccc4O)cc3)cs2)cc1` [Example 115], which IC50 (MMP-13) is on record?
Answer: 3.32 µM

Question: And the IC50 (MMP-12)?
Answer: 0.25 µM

Question: Which results are given for `CC(=O)c1ccc(-c2ccc(-c3csc(C(=O)NCc4ccc(CC(=O)O)cc4)c3)cc2)c(O)c1` [Example 117, 2-{4-[({4-[4-(4-Acetyl-2-hydroxyphenyl)phenyl]thien-2-yl}-carboxamido)methyl]phenyl}acetic acid]?
Answer: IC50 (MMP-13): 0.31 µM; IC50 (MMP-12): 0.16 µM

Question: For `O=C(NCCN1CCOCC1)c1cc(-c2ccc(-c3ccccc3F)cc2)cs1` [Example 120, 4-[4-(2-Fluorophenyl)phenyl]-N-(2-morpholin-4-ylethyl)thiophene-2-carboxamide], which IC50 (MMP-13) is on record?
Answer: 6.1 µM

Question: And the IC50 (MMP-12)?
Answer: 0.66 µM

Question: Which IC50 (MMP-13) does the source give for `CC(=O)c1ccc(-c2ccc(-c3csc(C(=O)NC[C@H]4CC[C@H](C(=O)O)CC4)c3)cc2)cc1` [Example 123, trans-4-[({4-[4-(4-Acetylphenyl)phenyl]thien-2-yl}carboxamido)-methyl]cyclohexanecarboxylic acid] here?
Answer: 0.031 µM

Question: What about the IC50 (MMP-12) of the same compound?
Answer: 0.018 µM

Question: With `O=C(O)CC[C@H]1CC[C@H](NC(=O)c2cc(-c3ccc(OC(F)(F)F)cc3)cs2)CC1` [Example 129, trans-3-(4-{[4-(4-Trifluoromethoxyphenyl)thien-2-yl]-carboxamido}cyclohexyl)propanoic acid] as the compound, how does the IC50 (MMP-13) read?
Answer: 6.2 µM

Question: And the IC50 (MMP-12)?
Answer: 0.78 µM

Question: Which results are given for `O=C(O)CC1CCC(CNC(=O)c2cc(-c3ccc(OC(F)(F)F)cc3)cs2)CC1` (stereo not drawn) [Example 131, [4-({[4-(4-Trifluoromethoxyphenyl)thien-2-yl]carboxamido}methyl)-cyclohexyl]acetic acid]?
Answer: IC50 (MMP-13): 3.3 µM; IC50 (MMP-12): 0.425 µM

Question: For `O=C(NCc1ccc(O)c(C(=O)O)c1)c1cc(-c2ccc(OC(F)(F)F)cc2)cs1` [Example 133, 2-Hydroxy-({[4-(4-trifluoromethoxyphenyl)thien-2-yl]-carboxamido}methyl)benzoic acid], which IC50 (MMP-13) is on record?
Answer: 2.65 µM

Question: What about the IC50 (MMP-12) of the same compound?
Answer: 0.95 µM

Question: With `CC(=O)c1ccc(-c2ccc(-c3csc(C(=O)NCc4ccc(C(=O)O)cn4)c3)cc2)cc1` [Example 135, 6({[4-(4′-Acetyl-4-biphenyl)thien-2-yl]carboxamido}methyl)-nicotinic acid] as the compound, how does the IC50 (MMP-13) read?
Answer: 0.08 µM

Question: And the IC50 (MMP-12)?
Answer: 0.042 µM

Question: With `O=C(O)Cc1ccc(-c2ccc(-c3csc(C(=O)NCCN4CCOCC4)c3)cc2)cc1.[Na+]` [Example 146, {4′-[5-(2-Morpholin-4-ylethylcarbamoyl)thiophen-3-yl]biphenyl-4-yl}-acetic acid, sodium salt] as the compound, how does the solubility [1] read?
Answer: very low solubility

Question: Which results are given for `CC(C)[C@H](NC(=O)c1cc(-c2ccc(OC(F)(F)F)cc2)cs1)C(=O)O` [Example 150, (2S)-2-{[4-(4-Trifluoromethoxyphenyl)thien-2-yl]carboxamido}-3-methylbutanoic acid]?
Answer: IC50 (MMP-13): 10.1 µM; IC50 (MMP-12): 0.78 µM

— US20040072871A1, “Novel thiophene derivatives, their process of preparation and the pharmaceutical compositions which comprise them” (priority 2002, published 2004)
